Data: patent US20260325542A1, “CANCER TARGETING COMPLEX, AND COMPOSITION COMPRISING SAME FOR PREVENTING OR TREATING CANCER” (EWHA UNIVERSITY - INDUSTRY COLLABORATION FOUNDATION, priority 2023, published 2026)

Assay: Particle size by DLS before and after binding to albumin
Assay type: physicochemical
Settings: before and after binding to BSA
Experimental: A BSA solution (200 μM) diluted with PBS was co-incubated by mixing it with an ECMal-PROTAC aqueous solution (140 μM) of example 1 at a 1:1 volume ratio.

change in particle size on binding to albumin: no significant change in particle size
Structure (SMILES): Cc1ncsc1-c1ccc([C@H](C)NC(=O)[C@@H]2C[C@@H](OC(=O)CCCCn3nnc4c3CCC3C(CC4)C3COC(=O)NCCOCCOCCNC(=O)CCN3C(=O)C=CC3=O)CN2C(=O)[C@@H](NC(=O)COCCCOCCNC(=O)C[C@@H]2N=C(c3ccc(Cl)cc3)c3c(sc(C)c3C)-n3c(C)nnc32)C(C)(C)C)cc1 (stereo partly shown) [ECMal-PROTAC]
